Assay results: US11339165B2, “Pyrazolopyrimidines having activity against the respiratory syncytial virus (RSV)” (priority 2017, dated 2022)

Experiments:
[1] = in vitro; details: human, TOX HELA CC50 (μM)
[2] = system: rgRSV224 virus; assay: Antiviral activity: rgRSV224 (GFP) replication in HeLa cells; type: cell-based, respiratory syncytial virus (RSV); details: human respiratory syncytial virus, HeLa, 72 h, read-out: RSV HELA EC50 (μM), rgRSV224 virus (MOI=1), HeLa cells, GFP expression three days post-virus exposure

SMILES	CC50 at 3 days [1] [µM]	EC50 [2] [µM]
COC(=O)N[C@H]1CCN(c2ccc(-c3cc4nc(C(=O)N5CCc6ccccc6[C@H]5C)cc(C5CC5)n4n3)c(F)c2)C1 [Compound 10, Methyl N-[(3S)-1-[4-{7-cyclopropyl-5-[(1R)-1-methyl-1,2,3,4-tetrahydroisoquinoline-2-carbonyl]pyrazolo[1,5-a]pyrimidin-2-yl}-3-fluorophenyl)pyrrolidin-3-yl]carbamate]	> 100	0.07
C[C@@H]1c2ccccc2CCN1C(=O)c1cc(C2CC2)n2nc(-c3ccc(N4CC[C@H](NS(C)(=O)=O)C4)cc3F)cc2n1 [Compound 12, N-[(3S)-1-(4-{7-Cyclopropyl-5-[(1R)-1-methyl-1,2,3,4-tetrahydroisoquinoline-2-carbonyl]pyrazolo[1,5-a]pyrimidin-2-yl}-3-fluorophenyl)pyrrolidin-3-yl]methane-sulfonamide]	> 100	0.041
C[C@@H]1c2ccccc2CCN1C(=O)c1cc(C2CC2)n2nc(-c3ccc(N4CC[C@@H](O)C4)cc3F)cc2n1 [Compound 13, (3R)-1-(4-{7-Cyclopropyl-5-[(1R)-1-methyl-1,2,3,4-tetrahydroisoquinoline-2-carbonyl]pyrazolo[1,5-a]pyrimidin-2-yl}-3-fluorophenyl)pyrrolidin-3-ol]	80.5	0.058
C[C@@H]1c2ccccc2CCN1C(=O)c1cc(C2CC2)n2nc(-c3ccc(N4CC[C@H](O)C4)cc3F)cc2n1 [Compound 14, (3S)-1-(4-{7-Cyclopropyl-5-[(1R)-1-methyl-1,2,3,4-tetrahydroisoquinoline-2-carbonyl]-pyrazolo[1,5-a]pyrimidin-2-yl}-3-fluorophenyl)pyrrolidin-3-ol]	81.2	0.039
CNC(=O)O[C@@H]1CCN(c2ccc(-c3cc4nc(C(=O)N5CCc6ccccc6[C@H]5C)cc(C5CC5)n4n3)c(F)c2)C1 [Compound 15, (3R)-1-(4-{7-Cyclopropyl-5-[(1R)-1-methyl-1,2,3,4-tetrahydroisoquinoline-2-carbonyl]-pyrazolo[1,5-a]pyrimidin-2-yl}-3-fluorophenyl)pyrrolidin-3-yl N-methylcarbamate]	> 100	0.1
CNC(=O)O[C@H]1CCN(c2ccc(-c3cc4nc(C(=O)N5CCc6ccccc6[C@H]5C)cc(C5CC5)n4n3)c(F)c2)C1 [Compound 16, (3S)-1-(4-{7-Cyclopropyl-5-[(1R)-1-methyl-1,2,3,4-tetrahydroisoquinoline-2-carbonyl]-pyrazolo[1,5-a]pyrimidin-2-yl}-3-fluorophenyl)pyrrolidin-3-yl N-methylcarbamate]	> 100	0.11
C[C@@H]1c2ccccc2CCN1C(=O)c1cc(C2CC2)n2nc(-c3ccc(N4CC[C@H](S(C)(=O)=O)C4)cc3F)cc2n1 [Compound 18, (1R)-2-(7-Cyclopropyl-2-{2-fluoro-4-[(3S)-3-methanesulfonylpyrrolidin-1-yl]phenyl}-pyrazolo[1,5-a]pyrimidine-5-carbonyl)-1-methyl-1,2,3,4-tetrahydroisoquinoline]	> 100	0.044
CC(=O)NS(=O)(=O)C1CCN(c2ccc(-c3cc4nc(C(=O)N5CCc6ccccc6[C@H]5C)cc(C5CC5)n4n3)c(F)c2)C1 (stereo partly drawn) [Compound 20, N-{[1-(4-{7-Cyclopropyl-5-[(1R)-1-methyl-1,2,3,4-tetrahydroisoquinoline-2-carbonyl]-pyrazolo[1,5-a]pyrimidin-2-yl}-3-fluorophenyl)pyrrolidin-3-yl]sulfonyl}acetamide]	55.9	0.052
CNS(=O)(=O)C1CCN(c2ccc(-c3cc4nc(C(=O)N5CCc6ccccc6[C@H]5C)cc(C5CC5)n4n3)c(F)c2)C1 (stereo partly drawn) [Compound 21, 1-(4-{7-Cyclopropyl-5-[(1R)-1-methyl-1,2,3,4-tetrahydroisoquinoline-2-carbonyl]-pyrazolo[1,5-a]pyrimidin-2-yl}-3-fluorophenyl)-N-methylpyrrolidine-3-sulfonamide]	> 100	0.045
C[C@@H]1c2ccccc2CCN1C(=O)c1cc(C2CC2)n2nc(-c3ccc(N4CCC(S(=O)(=O)N(C)C)C4)cc3F)cc2n1 (stereo partly drawn) [Compound 22, 1-(4-{7-Cyclopropyl-5-[(1R)-1-methyl-1,2,3,4-tetrahydroisoquinoline-2-carbonyl]-pyrazolo[1,5-a]pyrimidin-2-yl}-3-fluorophenyl)-N,N-dimethylpyrrolidine-3-sulfonamide]	> 100	0.145
C[C@@H]1c2ccccc2CCN1C(=O)c1cc(C2CC2)n2nc(-c3ccc(N4CC[C@H](C(=O)N(C)C)C4)cc3F)cc2n1 [Compound 38, (3S)-1-(4-{7-Cyclopropyl-5-[(1R)-1-methyl-1,2,3,4-tetrahydroisoquinoline-2-carbonyl]-pyrazolo[1,5-a]pyrimidin-2-yl}-3-fluorophenyl)-N,N-dimethylpyrrolidine-3-carboxamide]	> 100	0.043
C[C@@H]1c2ccccc2CCN1C(=O)c1cc(C2CC2)n2nc(-c3ccc(N4CC[C@H](C(=O)NC#N)C4)cc3F)cc2n1 [Compound 39, (3S)—N-Cyano-1-(4-{7-cyclopropyl-5-[(1R)-1-methyl-1,2,3,4-tetrahydroisoquinoline-2-carbonyl]pyrazolo[1,5-a]pyrimidin-2-yl}-3-fluorophenyl)pyrrolidine-3-carboxamide]	53.1	0.291
C[C@@H]1c2ccccc2CCN1C(=O)c1cc(C2CC2)n2nc(-c3ccc(N4CC[C@H](C(=O)NS(C)(=O)=O)C4)cc3F)cc2n1 [Compound 40, (3S)-1-(4-{7-Cyclopropyl-5-[(1R)-1-methyl-1,2,3,4-tetrahydroisoquinoline-2-carbonyl]-pyrazolo[1,5-a]pyrimidin-2-yl}-3-fluorophenyl)-N-methanesulfonylpyrrolidine-3-carboxamide]	52.3	0.061
CNC(=O)[C@H]1CCN(c2ccc(-c3cc4nc(C(=O)N5CCc6ccccc6[C@H]5C)cc(C5CC5)n4n3)c(F)n2)C1 [Compound 50, (3S)-1-(5-{7-Cyclopropyl-5-[(1R)-1-methyl-1,2,3,4-tetrahydroisoquinoline-2-carbonyl]-pyrazolo[1,5-a]pyrimidin-2-yl}-6-fluoropyridin-2-yl)-N-methylpyrrolidine-3-carboxamide]	35.1	0.031
C[C@@H]1c2ccccc2CCN1C(=O)c1cc(C2CC2)n2nc(-c3ccc(N4CC[C@H](C(=O)NS(C)(=O)=O)C4)nc3F)cc2n1 [Compound 51, (3S)-1-(5-{7-Cyclopropyl-5-[(1R)-1-methyl-1,2,3,4-tetrahydroisoquinoline-2-carbonyl]-pyrazolo[1,5-a]pyrimidin-2-yl}-6-fluoropyridin-2-yl)-N-methanesulfonylpyrrolidine-3-carboxamide]	67.9	0.131
C[C@@H]1c2ccccc2CCN1C(=O)c1cc(-c2ccccc2)n2nc(-c3ccc(N4CC[C@H](C(N)=O)C4)cc3F)cc2n1 [Compound 56, (3S)-1-(3-Fluoro-4-{5-[(1R)-1-methyl-1,2,3,4-tetrahydroisoquinoline-2-carbonyl]-7-phenylpyrazolo[1,5-a]pyrimidin-2-yl}phenyl)pyrrolidine-3-carboxamide]	58.9	0.032
